Source: US7141585B2 (dated 2006)

melting point: 105.8 to 107.5 °C
Compound: CCOC(=O)c1c(Cc2cc(Cl)cc(Cl)c2)c(C)nn1CCO
